Data on three compounds can be found in patent publication US20220033430A1, “ORALLY ACTIVE PRODRUG OF GEMCITABINE” (TNT Medical Corporation, priority 2018, published 2022).

“Also recorded” adds a separate entry of the source.

For data set [1], the system named is ovarian cancer A2780 xenograft model. As to the kind of experiment: In vivo xenograft study, ovarian cancer A2780 model. To be noted: for Tumor volume: A2780 xenograft. The arrangement: species or system mice. An excerpt:
Compound of Example 2 was selected for in vivo studies in the ovarian cancer A2780 xenograft model. Typically, athymic nude mice (CD-1 nu/nu) or SCID mice are obtained at age 6-8 weeks from vendors and acclimated for a minimum 7-day period. The cancer cells are then implanted into the nude mice. Depending on the specific tumor type, tumors are typically detectable about two weeks following implantation. When tumor sizes reach ˜100-200 mm^3, the animals with appreciable tumor size and shape are randomly assigned into groups of 8 mice each, including one vehicle control group and treatment groups. Dosing varies depending on the purpose and length of each study, which typically proceeds for about 3-4 weeks. Tumor sizes and body weight are typically measured three times per week. In addition to the determination of tumor size changes, the last tumor measurement is used to generate the tumor size change ratio (T/C value), a standard metric developed by the National Cancer Institute for xenograft tumor evaluation. In most cases, % T/C values are calculated using the following formula: % T/C=100×ΔT/ΔC if ΔT>0. When tumor regression occurred (ΔT<0), however, the following formula is used: % T/T0=100×ΔT/T0. Values of <42% are considered significant.
Ovarian Cancer is the 5th most common cancer in women: ˜ 22,280 new cases and 14,240 death in 2016 in US. In China, Ovarian Cancer has more than 100,000 new cases each year. Gemcitabine (intravenous dosing) is the 2nd line SOC of Ovarian Cancer.

Data set [2] can be described thus: Water solubility observed during formulation for the PK study. The data set is classed as physicochemical. To be noted: compared with LY2334737.
The nature of data set [3]: Mice PK study: plasma active metabolite Gemcitabine after dosing of prodrug. Format: in vivo, male CD1 mouse. As to conditions: single dose 10, 150, 300 mg/kg. The method, then:
The pharmacokinetics of compounds were evaluated in male CD1 mouse via Intravenous and Oral Administration. The iv dose was administered as a slow bolus in the Jugular vein, and oral doses were administered by gavage. The formulation is 2.5% DMSO, 10% EtOH, 20% Cremphor EL, 67.5% D5W. The PK time point 5 min, 15, 30 min, 1, 2, 4, 6, 8 hours post dose. Approximately 0.03 mL blood will be collected at each time point. Keep blood at room temperature and collect plasma within 15 min by centrifugation at 4000 g for 5 minutes in a 4° C. centrifuge. Plasma samples will be stored in polypropylene tubes. The plasma samples will be stored in a freezer at −75±15° C. prior to analysis. Concentrations of compounds and the active metaboliste Gemcitabine in the plasma samples will be analyzed using a LC-MS/MS method. WinNonlin (Phoenix, version 6.1) or other similar software will be used for pharmacokinetic calculations. The following pharmacokinetic parameters will be calculated, whenever possible from the plasma concentration versus time data: IV administration: C0, CL, Vd, T1/2, AUCinf, AUClast, MRT, Number of Points for Regression; PO administration: Cmax, Tmax, T1/2, AUCinf, AUClast, F %, Number of Points for Regression. The pharmacokinetic data will be described using descriptive statistics such as mean, standard deviation. […]

For data set [4] the following is noted: mice, single oral (gavage) dose of 167, 333, or 500 mg/kg; cited from earlier work.
For data set [5] the following is noted: LY2334737 QD, Japanese patients, 2013; cited from earlier work.

Regarding `CCCC(CCC)C(=O)Nc1ccn([C@@H]2O[C@H](COC(=O)C(C)C)[C@@H](OC(=O)[C@@H](N)C(C)C)C2(F)F)c(=O)n1` [Example 2, (2R,3R,5R)-4,4-difluoro-2-[[(2-methylpropanoyl)oxy]methyl]-5-[2-oxo-4-(2-propylpentanamido)-1,2-dihydropyrimidin-1-yl]oxolan-3-yl (2S)-2-amino-3-methylbutanoate], the “efficacy compared with Gemcitabine (IV dosing)” value in data set [1] (A2780 model, Example 2 oral dosing) is listed as “better efficacy than Gemcitabine (IV dosing)”. Also, in data set [1] (75 mg/kg po q4d × 7), the Tumor volume was determined as 65 mm^3. Further, in data set [2], the water solubility entry is on record as “significant higher water solubility than LY2334737; also recorded: excellent water solubility”. The “PK linearity of active metabolite Gemcitabine” value in data set [3] is reported as “good PK linearity”.

`Nc1ccn([C@@H]2O[C@H](CO)[C@@H](O)C2(F)F)c(=O)n1` [Gemcitabine] showed a Tumor volume in data set [1] (120 mg/kg IV qw × 4) of 442 mm^3. Besides, the “adverse dose-limiting intestinal lesions” value in data set [4] is “moderate-to-marked loss of mucosal epithelium (atrophic enteropathy)”.

In the case of `CCCC(CCC)C(=O)Nc1ccn([C@@H]2O[C@H](CO)[C@@H](O)C2(F)F)c(=O)n1` [LY2334737], the hepatic toxicity entry in data set [5] is listed as “unexpected hepatic toxicities were observed”.
